The values below come from publication PMC4476171 (Cardiovascular Diabetology, 2015).

Data set [1] deals with anesthetized male Sprague–Dawley rats. Kind of data set: Glomerular filtration rate by inulin clearance. The following applies: anesthetized male SD rats. In kind it is in vivo, rat. The procedure:
(§1) After one week of acclimation, SD rats (10–12 weeks old) were randomly divided into study groups. Rats were anesthetized with thiobutabarbital sodium (Inactin, 110 mg/kg, IP; Sigma-Aldrich, St. Louis, Missouri). Core temperature was maintained between 36 and 37°C throughout the study using a heating pad (Fine Science Tools Inc., Foster City, California). Polyethylene PE-50 tubing was inserted into the left femoral artery to permit intermittent blood sampling, and was also connected to a pressure transducer (NL108T2, Harvard Apparatus, Holliston, Massachusetts) for the measurement of blood pressure (BP) and heart rate (HR). […] Urine volumes were measured and urine was analyzed for electrolytes (Na^+, K^+, and Cl^−) and pH at multiple time points during the study. GFR and RBF were determined by inulin and PAH renal clearance at baseline and the end of the study. […]
(§2) One group of animals received four successive infusions of saline. […] BP, HR, urinary Na^+, K^+, and Cl^− excretion were measured at baseline and at the end of each 20 minute infusion period. GFR and RBF were assessed at baseline and at the end of the last infusion period in each animal (Figure 1).
(§3) Animals were randomized into 8 experimental groups (n = 6 - 8) (Table 1): Group 1. […] Parameters measured are the same as described in Protocol 1 (Figure 2). […]

For data set [2] the test system is unchanged. Kind of data set: Renal excretory function: urine flow rate, urinary Na+, K+, Cl− excretion. The following applies: anesthetized male SD rats, Figure 5. In kind it is in vivo, rat. The procedure: as §1, §2, §3
For data set [3] the test system is unchanged. The data set can be described thus: Renal blood flow by para-aminohippurate clearance. The data set is classed as in vivo, rat. The following applies: anesthetized male SD rats. The procedure:
as §1, §2, §3

Data set [4] in a line: Plasma concentration of active GLP-1 (ELISA). The following applies: anesthetized male SD rats. The data set is classed as in vivo, rat. The procedure:
as §1, with “(HR). The signal from the pressure transducer was transmitted to a Ponemah data acquisition system (Data Science International, St. Paul, Minnesota). The left femoral vein was cannulated with PE-50 tubing for solution administration and compound delivery, respectively. The bladder was catheterized with PE-100 tubing to allow timed collections of urine.” for “(HR).”
Na^+, K^+, and Cl^− concentrations in plasma and urine were measured by a Roche Modular Chemistry System (Roche Diagnostics, Indianapolis, Indiana). Hematocrit was determined using a HESKA I-STAT Hematology Analyzer (HESKA, Fribourg, Switzerland). Urine pH was measured by a pH meter (Fisher Scientific, Pittsburgh, Pennsylvania). Inulin and PAH concentrations in plasma and urine were determined by colorimetric assays. […] Plasma DPP4 activity was measured using a continuous fluorometric assay with the substrate Gly-Pro-AMC, which is cleaved by DPP4 to release the fluorescent AMC leaving group.
(In general: An ELISA detects its analyte on a solid surface through an enzyme-linked reagent.)

The test system of data set [5] is anesthetized male Sprague–Dawley rats. Kind of data set: Plasma glucose. Conditions: anesthetized male SD rats, mean ± SE, n = 6-8. In kind it is in vivo, rat.
Experimental: After one week of acclimation, SD rats (10–12 weeks old) were randomly divided into study groups. Rats were anesthetized with thiobutabarbital sodium (Inactin, 110 mg/kg, IP; Sigma-Aldrich, St. Louis, Missouri). Core temperature was maintained between 36 and 37°C throughout the study using a heating pad (Fine Science Tools Inc., Foster City, California). Polyethylene PE-50 tubing was inserted into the left femoral artery to permit intermittent blood sampling, and was also connected to a pressure transducer (NL108T2, Harvard Apparatus, Holliston, Massachusetts) for the measurement of blood pressure (BP) and heart rate (HR). The signal from the pressure transducer was transmitted to a Ponemah data acquisition system (Data Science International, St. Paul, Minnesota). The left femoral vein was cannulated with PE-50 tubing for solution administration and compound delivery, respectively. […] In addition, 0.9% saline was infused via a Y shape adapter to the left femoral vein at a rate of 0.1 ml/100 g/h. Rats were allowed to stabilize for ~1 hour before initiation of the study. The experimental protocol was initiated with a 20-minute baseline urine collection, followed by administration of either vehicle or test compound at a rate of 0.1 ml/100 g/h for 60-minutes.
For data set [6] the test system is unchanged. Kind of data set: Heart rate recorded from indwelling femoral artery catheter. In kind it is in vivo, rat. The following applies: anesthetized male SD rats, mean ± SE, n = 6-8. The procedure: as §1, §2
(§4) Animals were randomized into 8 experimental groups (n = 6 - 8) (Table 1): Group 1. […] Parameters measured are the same as described in Protocol 1 (Figure 2).

For data set [7] the test system is unchanged. Kind of data set: Blood pressure recorded from indwelling femoral artery catheter. In kind it is in vivo, rat. Conditions: anesthetized male SD rats, mean ± SE, n = 6-8. The procedure:
as §1, §2, §4

The next data set has as its target T1, DPP4 (Rattus norvegicus, UniProt P14740).
T1 construct: from tissue; host or cells: plasma of Sprague-Dawley rats
Kind of data set: Plasma DPP4 activity, continuous fluorometric assay with Gly-Pro-AMC. The following applies: anesthetized male SD rats, MK-0626 1 mg/kg iv bolus, substrate Gly-Pro-AMC. In kind it is in vivo. The procedure:
as §1
(§5) Na^+, K^+, and Cl^− concentrations in plasma and urine were measured by a Roche Modular Chemistry System (Roche Diagnostics, Indianapolis, Indiana). Hematocrit was determined using a HESKA I-STAT Hematology Analyzer (HESKA, Fribourg, Switzerland). Urine pH was measured by a pH meter (Fisher Scientific, Pittsburgh, Pennsylvania). Inulin and PAH concentrations in plasma and urine were determined by colorimetric assays. […]

In data set [8] the test system is anesthetized male Sprague–Dawley rats. Kind of data set: Hematocrit. In kind it is in vivo, rat. The following applies: anesthetized male SD rats, mean ± SE, n = 6-8. The procedure:
as §1, §5

The test system is the same in data set [9]. Kind of data set: Plasma insulin. The following applies: anesthetized male SD rats, mean ± SE, n = 6-8. The data set is classed as in vivo, rat. The procedure: as §1, with “(HR). The signal from the pressure transducer was transmitted to a Ponemah data acquisition system (Data Science International, St. Paul, Minnesota). The left femoral vein was cannulated with PE-50 tubing for solution administration and compound delivery, respectively. The bladder was catheterized with PE-100 tubing to allow timed collections of urine.” for “(HR).”

For data set [10] the test system is unchanged. Kind of data set: Urine pH. The data set is classed as in vivo, rat. Conditions: anesthetized male SD rats, mean ± SE, n = 6-8. The procedure:
as §1, §5

Data set [11] shares this test system. The data set can be described thus: Plasma K+ concentration. Conditions: anesthetized male SD rats, mean ± SE, n = 6-8. In kind it is in vivo, rat. The procedure:
as §1, §5

The mark [12] stands for this setting: group MK-0626 + Saline, baseline = 20 min period prior to IV administration.
Setting [13] is: MK-0626 1 mg/kg iv bolus followed by saline iv infusion, end of study.
Setting [14] is: MK-0626 1 mg/kg iv bolus followed by saline iv infusion.

The structures appear in SMILES notation.

T1 sequence (P14740 37-767 limits assumed): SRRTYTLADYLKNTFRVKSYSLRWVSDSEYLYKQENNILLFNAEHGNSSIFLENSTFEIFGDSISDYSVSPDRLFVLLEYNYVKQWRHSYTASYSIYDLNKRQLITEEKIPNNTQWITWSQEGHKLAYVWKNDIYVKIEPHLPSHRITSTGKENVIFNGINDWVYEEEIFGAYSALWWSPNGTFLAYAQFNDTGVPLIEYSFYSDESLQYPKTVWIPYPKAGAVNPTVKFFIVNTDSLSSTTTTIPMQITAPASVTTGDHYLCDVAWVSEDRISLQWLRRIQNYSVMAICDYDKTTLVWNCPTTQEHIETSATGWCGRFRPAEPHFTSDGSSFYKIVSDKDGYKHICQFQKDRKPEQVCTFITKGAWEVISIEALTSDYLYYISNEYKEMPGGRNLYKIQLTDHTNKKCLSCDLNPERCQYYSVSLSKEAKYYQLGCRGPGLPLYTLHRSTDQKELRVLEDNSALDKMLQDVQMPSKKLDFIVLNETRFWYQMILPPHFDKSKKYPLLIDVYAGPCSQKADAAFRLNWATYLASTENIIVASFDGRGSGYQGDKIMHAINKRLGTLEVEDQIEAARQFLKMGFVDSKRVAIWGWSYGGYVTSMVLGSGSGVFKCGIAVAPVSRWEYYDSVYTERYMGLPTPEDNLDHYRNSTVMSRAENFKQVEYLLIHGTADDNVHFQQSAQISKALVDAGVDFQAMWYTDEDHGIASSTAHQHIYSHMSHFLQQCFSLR

Consider `CC[C@H](C)[C@H](NC(=O)[C@H](Cc1ccccc1)NC(=O)[C@H](CCC(=O)O)NC(=O)[C@H](CCCCN)NC(=O)[C@H](C)NC(=O)[C@H](C)NC(=O)[C@H](CCC(N)=O)NC(=O)CNC(=O)[C@H](CCC(=O)O)NC(=O)[C@H](CC(C)C)NC(=O)[C@H](Cc1ccc(O)cc1)NC(=O)[C@H](CO)NC(=O)[C@H](CO)NC(=O)[C@@H](NC(=O)[C@H](CC(=O)O)NC(=O)[C@H](CO)NC(=O)[C@@H](NC(=O)[C@H](Cc1ccccc1)NC(=O)[C@@H](NC(=O)CNC(=O)[C@H](CCC(=O)O)NC(=O)[C@H](C)NC(=O)[C@@H](N)Cc1c[nH]cn1)[C@@H](C)O)[C@@H](C)O)C(C)C)C(=O)N[C@@H](C)C(=O)N[C@@H](Cc1c[nH]c2ccccc12)C(=O)N[C@@H](CC(C)C)C(=O)N[C@H](C(=O)N[C@@H](CCCCN)C(=O)NCC(=O)N[C@@H](CCCNC(=N)N)C(N)=O)C(C)C` [GLP-1, Glucagon-like peptide 1, reference compound], for which the “effect on GFR” value in data set [1] (GLP-1 iv infusion alone, no dose-dependence, Figure 6a) is “modest increase”. Moreover, the “effect on diuresis, natriuresis, chloruresis and kaliuresis” value in [2] (saline bolus followed by GLP-1 iv infusion alone (2.4, 4.8, 9.6 pmol/kg/min)) is listed as “modest, albeit significant increase”. For the same molecule, in data set [3] (GLP-1 alone, only at the highest dose 9.6 pmol/kg/min, Figure 6c), the “effect on RBF” value is “significant effect”. Moreover, the “effect on plasma active GLP-1 levels” value in [4] (exogenous GLP-1 infusion 2.4, 4.8 and 9.6 pmol/kg/min, further enhanced after MK-0626, Figure 4) is listed as “step-wise increase”.
For the molecule `CN(C)C(=O)[C@@H](c1ccc(-c2ccc3ncnn3c2)cc1)[C@H](N)C(=O)N1CCC(F)(F)C1.Cl` [MK-0626], the “Glucose, baseline” value in data set [5] (setting [12]) was 134.9 ± 6.0 mg/dL. The “Glucose, treatment” value in [5] (setting [13]) was 135.8 ± 7.3 mg/dL. Further, the “HR, baseline” value in data set [6] (setting [12]) amounted to 381.2 ± 10.0 bpm. For the same molecule, the “HR, treatment” value in data set [6] (setting [14]) was 380.9 ± 10.3 bpm. In addition, the “BP, baseline” value in data set [7] (setting [12]) is 123.5 ± 3.7 mmHg. Further, the “BP, treatment” value in [7] (setting [14]) is recorded as 121.9 ± 3.9 mmHg. Further, the “Plasma DPP4 activity, inhibition” value at DPP4 is listed as “greater than 90%”. In [1] (all animals that received MK-0626 1 mg/kg, not further enhanced by increasing doses of GLP-1, Figure 6b), the “effect on GFR” value is reported as “increased”. Besides, the “effect on diuresis or natriuresis” value in data set [2] (MK-0626 1 mg/kg iv bolus alone) is listed as “no significant effect”. Also, in data set [8] (setting [12]), the “Hematocrit, baseline” value came out at 40.0 ± 0.8%. Also, the “Hematocrit, treatment” value in data set [8] (setting [13]) was 38.2 ± 0.6%. Also, the “Insulin, baseline” value in [9] (setting [12]) came to 2.5 ± 0.2 ng/mL. The “Insulin, treatment” value in data set [9] (setting [13]) was found to be 2.7 ± 0.1 ng/mL. Also, the “effect on RBF” value in [3] (MK-0626 1 mg/kg alone, in the absence of GLP-1 administration) was “increased”. In data set [10] (setting [12]), the “urine pH, baseline” value worked out at 6.07 ± 0.17. Besides, the “urine pH, treatment” value in data set [10] (setting [14]) is reported as 6.25 ± 0.20. Besides, the “circulating GLP-1 level, baseline before MK-0626 alone” value in data set [4] (group MK-0626 alone, baseline, ELISA, active GLP-1) came out at 3.4 pmpol/L. Further, the “circulating GLP-1 level after MK-0626 alone” value in data set [4] (MK-0626 1 mg/kg iv bolus alone (no exogenous GLP-1), ELISA, active GLP-1) was 5.5 pmol/L. In addition, the “plasma K+, baseline” value in data set [11] (setting [12]) came to 4.4 ± 0.14 mmol/L. Further, in data set [11] (setting [13]), the “plasma K+, treatment” value stood at 4.2 ± 0.10 mmol/L.
